Measured values from patent US20240092784A1, “CONDENSED HETEROCYCLIC COMPOUND” (NISSAN CHEMICAL CORPORATION, priority 2020, published 2024).
Where a name gives a salt, the structure may show the parent alone.

Target: human SPR (Homo sapiens (Human), UniProt P35270)
Test: Evaluation Example 2: Measurement of human SPR inhibitory activity (seven concentrations, sepiapterin absorbance at 420 nm)
Format: biochemical
Details: Evaluation Example 2, seven concentrations 0.14 nM to 100 nM, 240 minutes at room temperature, read-out: IC50
Experimental: Human SPR was prepared as described below. The full-length human SPR (1-261) cDNA was purchased from Eurofins Genomics as an artificially synthesized plasmid containing a DNA sequence optimized for the E. coli expression system so that the sequence of the expressed protein after transcription and translation matches the sequence described in UniprotKB (P35270).
Linearized insert and vector were prepared by PCR using primers designed for amplification of human SPR cDNA and primers designed to contain the thrombin recognition sequence of pET28a (Novagen) and a polyhistidine tag. Cloning was performed using In-Fusion (registered trademark) HD Cloning Kit (TaKaRa) to thereby construct a human SPR expression plasmid. The resultant human SPR expression plasmid was transformed into BL21 (DE3) competent cells (INVITROGEN).
The cells were inoculated into LB medium (1% triptone, 0.5% yeast extract, 1% sodium chloride) containing […] of kanamycin, and then precultured at 37° C. overnight. The precultured cells were inoculated into TB medium (1.2% triptone, 2.4% yeast extract, 9.4% dipotassium hydrogen phosphate, 2.2% potassium dihydrogen phosphate, 0.8% glycerin) containing […] of kanamycin, and the cultured at 37° C., to thereby induce SPR expression with 0.5 mM IPTG for four hours. After the induction, the cells were collected by centrifugation at 6,000 G for 30 minutes and washed with PBS, and the washing was discarded. The washed cells were suspended in buffer solution A (20 mM MES, pH 6.5, 100 mM sodium chloride, 1 mM DTT, 5 mM imidazole). Subsequently, the cell suspension was subjected to ultrasonic treatment to thereby homogenize the cells. The cell homogenate was clarified by centrifugation at 30,000 G for 60 minutes and then filtered with a […]. The filtrate was allowed to pass through HisTrapFF 5 mL column (GE Healthcare). The resin was washed with buffer A, and then gradient elution was performed with buffer B (20 mM MES, pH 6.5, 100 mM sodium chloride, 1 mM DTT, 500 mM imidazole). Thrombin was added to a fraction containing the SPR protein, and the mixture was dialyzed in buffer A overnight, to thereby cleave the tag. After removal of the thrombin by with Benzamidine Sepharose 4 FF (GE Healthcare), the resultant product was allowed to pass through the HisTrapFF 5 mL column, to thereby remove the tag, followed by concentration with Amicon Ultra 10,000 NMWL (Merck Millipore). The concentrate was purified by gel filtration using HiLoad 16/60 Superdex 75 pg (GE Healthcare) equilibrated with buffer C (20 mM MES, pH 6.5, 100 mM sodium chloride, 1 mM DTT). The fraction containing SPR protein was concentrated and then cryopreserved at −80° C.
Human SPR inhibitory activity was measured by using a 384-well low adsorption clear plate (Greiner) with buffer D containing 100 mM Tris-HCl (pH 7.5) (Thermo Fisher Scientific) and 0.01% bovine serum albumin (Sigma). A compound was diluted with DMSO to achieve seven different final concentrations; i.e., 0.14 nM, 0.41 nM, 1.23 nM, 3.7 nM, 11.1 nM, 33 nM, and 100 nM. A 1.5 μL aliquot of the compound solution prepared with DMSO was diluted with 250 μL of buffer D, and the thus-diluted solution was dispensed into the 384-well plate at 20 μL/well. Thereafter, human SPR was diluted with buffer D to 150 ng/mL and then dispensed into the 384-well plate at 20 μL/well. Subsequently, 40 μL of ultrapure water containing 120 μM sepiapterin (produced by the method described in L-Sepiapterin, Heterocycles, 2008, 76, 1329-1335 and WO 2013/168693) and 160 μM NADPH (Nacalai) was added to each well, and then reaction was initiated. The reaction mixture was incubated at room temperature for 240 minutes. Thereafter, in order to determine the amount of sepiapterin, the absorbance at 420 nm was measured by applying the 384-well plate to EnSpire multimode plate reader (Perkin Elmer). The percent inhibition (%) of human SPR by the test compound was calculated by the following formula.

Chain of human SPR (P35270 whole entry): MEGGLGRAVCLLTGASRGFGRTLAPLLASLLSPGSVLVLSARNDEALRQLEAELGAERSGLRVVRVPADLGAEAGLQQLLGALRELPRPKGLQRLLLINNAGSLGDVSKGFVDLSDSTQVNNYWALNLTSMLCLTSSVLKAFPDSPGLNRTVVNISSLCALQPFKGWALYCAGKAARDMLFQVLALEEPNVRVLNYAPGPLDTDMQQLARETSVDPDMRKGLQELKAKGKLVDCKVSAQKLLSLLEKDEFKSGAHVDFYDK

`COC[C@H]1COCCN1C(=O)/C=C/c1cnn2c(O)c(C(=O)NC3CC3)c(=O)n(CC3(C)CC3)c12` [Synthesis Example 371, (S,E)-N-Cyclopropyl-7-hydroxy-3-(3-(3-(methoxymethyl)morpholino)-3-oxoprop-1-en-1-yl)-4-((1-methylcyclopropyl)methyl)-5-oxo-4,5-dihydropyrazolo[1,5-a]pyrimidine-6-carboxamide] and `CC(C)Cn1c(=O)c(C(=O)NC2CC2)c(O)n2ncc(/C=C/C(=O)N3CCOC[C@@H]3CO)c12` [compound 525, (S,E)-N-Cyclopropyl-7-hydroxy-3-(3-(3-(hydroxymethyl)morpholino)-3-oxoprop-1-en-1-yl)-4-isobutyl-5-oxo-4,5-dihydropyrazolo[1,5-a]pyrimidine-6-carboxamide] are within 1.5-fold of each other in IC50: 0.61 nM for the first, 0.65 nM for the second.

Going from `Cc1nn2c(O)c(C(=O)NC3CC3)c(=O)n(CC(C)C)c2c1/C=C/C(=O)N1CCN(C2CC(F)(F)C2)CC1` [Synthesis Example 615, (E)-N-Cyclopropyl-3-(3-(4-(3,3-difluorocyclobutyl)piperazin-1-yl)-3-oxoprop-1-en-1-yl)-7-hydroxy-4-isobutyl-2-methyl-5-oxo-4,5-dihydropyrazolo[1,5-a]pyrimidine-6-carboxamide] to `Cc1nn2c(O)c(C(=O)NC3CC3)c(=O)n(CC(C)C)c2c1/C=C/C(=O)N1C[C@@H](F)[C@@H](F)C1` [Synthesis Example 648, N-Cyclopropyl-3-((E)-3-(cis-3,4-difluoropyrrolidin-1-yl)-3-oxoprop-1-en-1-yl)-7-hydroxy-4-isobutyl-2-methyl-5-oxo-4,5-dihydropyrazolo[1,5-a]pyrimidine-6-carboxamide], the IC50 falls from 1.4 nM to 0.74 nM (1.9-fold).

Compared with `Cc1nn2c(O)c(C(=O)NC3CC3)c(=O)n(CC(C)C)c2c1/C=C/C(=O)N1CCC[C@H]1c1cccnc1` [Synthesis Example 633, (S,E)-N-Cyclopropyl-7-hydroxy-4-isobutyl-2-methyl-5-oxo-3-(3-oxo-3-(2-(pyridin-3-yl)pyrrolidin-1-yl)prop-1-en-1-yl)-4,5-dihydropyrazolo[1,5-a]pyrimidine-6-carboxamide], `CC(C)Cn1c(=O)c(C(=O)NC2CC2)c(O)n2ncc(/C=C/C(=O)N3CCc4cccnc43)c12` [compound 594, (E)-N-Cyclopropyl-3-(3-(2,3-dihydro-1H-pyrrolo[2,3-b]pyridin-1-yl)-3-oxoprop-1-en-1-yl)-7-hydroxy-4-isobutyl-5-oxo-4,5-dihydropyrazolo[1,5-a]pyrimidine-6-carboxamide] is 2.2-fold higher in IC50: 0.91 nM for the first, 2.01 nM for the second. The first is the more potent here.

`Cc1nn2c(O)c(C(=O)NC3CC3)c(=O)n(CC(C)(C)C)c2c1/C=C/C(=O)N1CCC(F)(F)C1` [Synthesis Example 627, (E)-N-Cyclopropyl-3-(3-(3,3-difluoropyrrolidin-1-yl)-3-oxoprop-1-en-1-yl)-7-hydroxy-2-methyl-4-neopentyl-5-oxo-4,5-dihydropyrazolo[1,5-a]pyrimidine-6-carboxamide] and `CC(C)(C)Cn1c(=O)c(C(=O)NC2CC2)c(O)n2nc3c(c12)CN(C1CC1)C(=O)N3` [Synthesis Example 408, N,3-Dicyclopropyl-8-hydroxy-5-neopentyl-2,6-dioxo-1,2,3,4,5,6-hexahydropyrazolo[1,5-a:3,4-d′]dipyrimidine-7-carboxamide] are within 1.5-fold of each other in IC50: 0.94 nM for the first, 0.83 nM for the second.

`CC(C)Cn1c(=O)c(C(=O)NC2CC2)c(O)n2ncc(C(=O)NCc3ccccc3F)c12` [Synthesis Example 233, N6-Cyclopropyl-N3-(2-fluorobenzyl)-7-hydroxy-4-isobutyl-5-oxo-4,5-dihydropyrazolo[1,5-a]pyrimidine-3,6-dicarboxamide] and `CC(C)Cn1c(=O)c(C(=O)NC2CC2)c(O)n2ncc(C3=CCCNC3)c12` [Synthesis Example 239, N-Cyclopropyl-7-hydroxy-4-isobutyl-5-oxo-3-(1,2,5,6-tetrahydropyridin-3-yl)-4,5-dihydropyrazolo[1,5-a]pyrimidine-6-carboxamide hydrochloride] are within 1.5-fold of each other in IC50: 1.03 nM for the first, 0.72 nM for the second.

First: CC(C)(C)Cn1c(=O)c(C(=O)NC2CC2)c(O)n2nc(-c3cc(C#N)cnc3N)cc12 [Synthesis Example 291, 2-(2-Amino-5-cyanopyridin-3-yl)-N-cyclopropyl-7-hydroxy-4-neopentyl-5-oxo-4,5-dihydropyrazolo[1,5-a]pyrimidine-6-carboxamide]
Second: CC(C)(C)Cn1c(=O)c(C(=O)NC2CC2)c(O)n2nc(-c3c[nH]nc3N)cc12 [Synthesis Example 317, 2-(3-Amino-1H-pyrazol-4-yl)-N-cyclopropyl-7-hydroxy-4-neopentyl-5-oxo-4,5-dihydropyrazolo[1,5-a]pyrimidine-6-carboxamide]
The IC50 of the first is 4.8-fold higher: 6.42 nM for the first, 1.34 nM for the second.

First: CC(C)Cn1c(=O)c(C(=O)NC2CC2)c(O)n2ncc(/C=C/C(=O)N3CCOC[C@@H]3C)c12 [compound 455, (S,E)-N-Cyclopropyl-7-hydroxy-4-isobutyl-3-(3-(3-methylmorpholino)-3-oxoprop-1-en-1-yl)-5-oxo-4,5-dihydropyrazolo[1,5-a]pyrimidine-6-carboxamide]
Second: COC1CN(C(=O)/C=C/c2cnn3c(O)c(C(=O)NC4CC4)c(=O)n(CC(C)C)c23)C1 [compound 558, (E)-N-Cyclopropyl-7-hydroxy-4-isobutyl-3-(3-(3-methoxyazetidin-1-yl)-3-oxoprop-1-en-1-yl)-5-oxo-4,5-dihydropyrazolo[1,5-a]pyrimidine-6-carboxamide]
The IC50 of the first is 1.6-fold lower: 0.72 nM for the first, 1.14 nM for the second. The first is the more potent here.

In the case of `COc1nccc(Nc2cc3n(CC(C)(C)C)c(=O)c(C(=O)NC4CC4)c(O)n3n2)n1` [Synthesis Example 332, N-Cyclopropyl-7-hydroxy-2-((2-methoxypyrimidin-4-yl)amino)-4-neopentyl-5-oxo-4,5-dihydropyrazolo[1,5-a]pyrimidine-6-carboxamide], the IC50 is reported as 2.06 nM.

Same assay, conditions: sepiapterin absorbance, Table 41, read-out: concentration at 50% inhibition of human SPR (IC50)

`CC(C)Cn1c(=O)c(C(=O)NC2CC2)c(O)n2ncc(/C=C/C(=O)N3C[C@@H](F)[C@@H](F)C3)c12` [Synthesis Example 722, N-Cyclopropyl-3-((E)-3-(cis-3,4-difluoropyrrolidin-1-yl)-3-oxoprop-1-en-1-yl)-7-hydroxy-4-isobutyl-5-oxo-4,5-dihydropyrazolo[1,5-a]pyrimidine-6-carboxamide] and `CC(C)Cn1c(=O)c(C(=O)NC2CC2)c(O)n2ncc(/C=C/C(=O)N3CC(C#N)C3)c12` [Synthesis Example 734, (E)-3-(3-(3-Cyanoazetidin-1-yl)-3-oxoprop-1-en-1-yl)-N-cyclopropyl-7-hydroxy-4-isobutyl-5-oxo-4,5-dihydropyrazolo[1,5-a]pyrimidine-6-carboxamide] are within 1.5-fold of each other in IC50: 0.81 nM for the first, 0.73 nM for the second.

`CC[C@H]1COCCN1C(=O)/C=C/c1c(C)nn2c(O)c(C(=O)NC3CC3)c(=O)n(CC(C)(C)C)c12` [Synthesis Example 691, (S,E)-N-Cyclopropyl-3-(3-(3-ethylmorpholino)-3-oxoprop-1-en-1-yl)-7-hydroxy-2-methyl-4-neopentyl-5-oxo-4,5-dihydropyrazolo[1,5-a]pyrimidine-6-carboxamide] and `CC(C)Cn1c(=O)c(C(=O)NC2CC2)c(O)n2ncc(/C=C/C(=O)N3C[C@H](C)OC[C@@H]3C)c12` [Synthesis Example 717, N-Cyclopropyl-3-((E)-3-((2S,5S)-2,5-dimethylmorpholino)-3-oxoprop-1-en-1-yl)-7-hydroxy-4-isobutyl-5-oxo-4,5-dihydropyrazolo[1,5-a]pyrimidine-6-carboxamide] are within 1.5-fold of each other in IC50: 0.82 nM for the first, 0.78 nM for the second.
